Experimental data: US20090054486A1, “POLYMORPHIC FORM XVI OF FEXOFENADINE HYDROCHLORIDE” (Teva Pharmaceuticals USA, Inc., priority 2002, published 2009)
Where a name gives a salt, the structure may show the parent alone.

Experiment: Storage stability against transformation to other crystalline forms
Type: physicochemical
Experimental: Fexofenadine hydrochloride Form XVI is substantially stable during storage. Fexofenadine hydrochloride Form XVI is stable against transformation to other crystalline forms upon storage at relative humidity of up to about 100% for at least about 1 week, and storage at about 40° C. and about 75% relative humidity for at least about 6 months. The conversion is preferably less than about 5%, more preferably less than about 2% by weight.
In another aspect, the present invention provides for processes for preparation of fexofenadine hydrochloride Form XVI, which allow preparing fexofenadine HCl form XVI substantially free of other polymorphic forms of fexofenadine HCl, including amorphous form. As used herein, “substantially free” refers to less than about 5% on a weight basis, preferably less than about 2%, weight of polymorphic forms other than Form XVI compared to the weight of all the polymorphic forms, including Form XVI. A suitable method for determining the presence of other polymorphic forms is with X-Ray Powder diffraction.

time stable against transformation to other crystalline forms upon storage (storage at about 40° C. and about 75% relative humidity): at least 6 months
time stable against transformation to other crystalline forms upon storage (storage at relative humidity of up to about 100%): at least 1 week
Compound: CC(C)(C(=O)O)c1ccc(C(O)CCCN2CCC(C(O)(c3ccccc3)c3ccccc3)CC2)cc1 (stereo not drawn) [Fexofenadine hydrochloride Form XVI, 4-[4-[4-(hydroxydiphenylmethyl)-1-piperidinyl]-1-hydroxybutyl]-α,α-dimethylbenzeneacetic acid]
